≈ marks a conversion by molar mass, not a printed value.

System in the first series: not listed separately
As to the kind of experiment: Kinetic solubility in 50 mM phosphate buffer pH 7.4. Type of series: physicochemical. The settings on record: aqueous buffer, kinetic from dmso stock, 50 mM phosphate buffer pH 7.4, 2% DMSO, room temperature. As to the method:
50 mM phosphate buffer pH=7.4: 0.39 g of NaH2PO4.2H2O, and 1.4025 g of Na2HPO4 were weighted and placed in an erlenmeyer flask, 240 mL of water was added. The solid was dissolved and mixed thoroughly, the pH value was adjusted to 7.4 with 10M NaOH solution, and the resulting solution was transferred to a 250 mL volumetric flask, followed by adding water to the mark.
Waters e2695 HPLC high performance liquid chromatography, Mettler XSE105 analytical balance.
Firstly, a 10 mM stock solution with DMSO as the solvent was prepared, and was diluted with a diluent (ACN: PB buffer 50:50) into 1 μM-200 μM as standard solution.
Kinetic solubility. 30 μL of the stock solution was placed in a 2 mL centrifuge tube, 1470 μL of 50 mM phosphate buffer (pH 7.4) (containing DMSO at a final concentration of 2%) was added. The mixture was shaken at room temperature (1000 rpm/min) for 24 hours, and then filtered. The filtrate was tested by high performance liquid chromatography (UV).
For `COCc1cc(-c2nnc3c4ccccc4c(OCc4ccc(C(=O)NC5CCOCC5)cn4)nn23)no1` [Compound 04, 6-[3-(5-methoxymethyl-isoxazol-3-yl)-[1,2,4]triazolo[3,4-a]phthalazin-6-yloxymethyl]-N-(tetrahydro-pyran-4-yl)-nicotinamide], the solubility (kinetic) at 24 h came out at 13.1 µg/mL (≈ 25.5 µM). Still for that read-out and setting: as for `COCc1cc(-c2nnc3c4ccccc4c(OCc4ccc(C(=O)N[C@H](C)COC)cn4)nn23)no1` [Compound 09, (R)—N-(2-methoxy-1-methyl-ethyl)-6-[3-(5-methoxymethyl-isoxazol-3-yl)-[1,2,4]triazolo[3,4-a]phthalazin-6-yloxymethyl]-nicotinamide], the figure is 27.7 µg/mL (≈ 55 µM). On the same count and under the same terms, for `COCc1cc(-c2nnc3c4ccccc4c(OCc4ccc(C(=O)NCCOC(F)(F)F)cn4)nn23)no1` [Compound 13, 6-[3-(5-methoxymethyl-isoxazol-3-yl)-[1,2,4]triazolo[3,4-a]phthalazin-6-yloxymethyl]-N-(2-trifluoromethoxy-ethyl)-nicotinamide] the value was 0.57 µg/mL (≈ 1.05 µM); for `COCc1cc(-c2nnc3c4ccccc4c(OCc4ccc(C(=O)NC(C)(C)COC)cn4)nn23)no1` [Compound 14, N-(2-methoxy-1,1-dimethyl-ethyl)-6-[3-(5-methoxymethyl-isoxazol-3-yl)-[1,2,4]triazolo[3,4-a]phthalazin 6-yloxymethyl]-nicotinamide], 35.7 µg/mL (≈ 68.9 µM). Same read-out and setting: as for `COCc1cc(-c2nnc3c4ccccc4c(OCc4ccc(C(=O)NCCO)cn4)nn23)no1` [Compound 16, N-(2-hydroxy-ethyl)-6-[3-(5-methoxymethyl-isoxazol-3-yl)-[1,2,4]triazolo[3,4-a]phthalazin-6-yloxymethyl]-nicotinamide], the figure is 49.4 µg/mL (≈ 104 µM).

`COCc1cc(-c2nnc3c4ccccc4c(OCc4ccc(C(=O)NC5(C#N)CC5)cn4)nn23)no1` [Compound 19] displayed a solubility (kinetic) at 24 h of 1.06 µg/mL (≈ 2.14 µM). Same read-out and setting: as for `COCc1cc(-c2nnc3c4ccccc4c(OCc4ccc(C(=O)NC5CC(F)C5)cn4)nn23)no1` (stereo not shown) [Compound 21], the figure is 1.18 µg/mL (≈ 2.34 µM); as for `COCc1cc(-c2nnc3c4ccccc4c(OCc4ccc(C(=O)NCCF)cn4)nn23)no1` [Compound 22], 8.92 µg/mL (≈ 18.7 µM); as for `COCc1cc(-c2nnc3c4ccccc4c(OCc4ccc(C(=O)NCC(F)(F)CO)cn4)nn23)no1` [Compound 25], 2.71 µg/mL (≈ 5.16 µM). Same read-out and setting: as for `COCc1cc(-c2nnc3c4ccccc4c(OCc4ccc(C(=O)NC5CCOC5)cn4)nn23)no1` (stereo not shown) [Compound 26, 6-[3-(5-methoxymethyl-isoxazol-3-yl)-[1,2,4]triazolo[3,4-a]phthalazin-6-yloxymethyl]-N-(tetrahydrofuran-3-yl)-nicotinamide], the figure is 20.3 µg/mL (≈ 40.6 µM); as for `COCc1cc(-c2nnc3c4ccccc4c(OCc4ccc(C(=O)NC(C)C(F)(F)F)cn4)nn23)no1` (stereo not shown) [Compound 27], 5.58 µg/mL (≈ 10.6 µM). The same measure, in the same setting: as for `COCc1cc(-c2nnc3c4ccccc4c(OCc4ccc(C(=O)NC5CCC(F)(F)CC5)cn4)nn23)no1` [Compound 33], the figure is 2.99 µg/mL (≈ 5.44 µM). `COCc1cc(-c2nnc3c4ccccc4c(OCc4ccc(C(=O)NC5CCC(F)(F)C5)cn4)nn23)no1` (stereo not shown) [Compound 35] returned a solubility (kinetic) at 24 h of 5.62 µg/mL (≈ 10.5 µM). Still for that read-out and setting: as for `COCc1cc(-c2nnc3c4ccccc4c(OCc4ccc(C(N)=O)cn4)nn23)no1` [Compound 36], the figure is 0.8 µg/mL (≈ 1.85 µM). Compound `COCc1cc(-c2nnc3c4ccccc4c(OCc4ccc(C(=O)N5CC(O)C5)cn4)nn23)no1` [Compound 41] returned a solubility (kinetic) at 24 h of 6.57 µg/mL (≈ 13.5 µM). Compared with the last compound, the solubility kinetic at 24 h is about 8.2-fold higher. Take `COCc1cc(-c2nnc3c4ccccc4c(OCc4ccc(C(=O)N5CC(C)OC(C)C5)cn4)nn23)no1` (stereo not shown) [Compound 44]: the kinetic solubility at 24 h came out at 74.6 µg/mL (≈ 141 µM).

As to `COCc1cc(-c2nnc3c4ccccc4c(OCc4ccc(C(=O)N(C)C5CC5)cn4)nn23)no1` [Compound 50], the solubility (kinetic) at 24 h is 3.75 µg/mL (≈ 7.72 µM). This solubility kinetic at 24 h is about 20-fold lower than that of the compound before. Still for that read-out and setting: for `COCc1cc(-c2nnc3c4ccccc4c(OCc4ccc(C(=O)N5CCC(F)(F)C5)cn4)nn23)no1` [Compound 51] the value was 5.62 µg/mL (≈ 10.8 µM); for `COCCN(CCOC)C(=O)c1ccc(COc2nn3c(-c4cc(COC)on4)nnc3c3ccccc23)nc1` [Compound 52], 51.9 µg/mL (≈ 94.7 µM). On the same count and under the same terms, as for `COCc1cc(-c2nnc3c4ccccc4c(OCc4ccc(C(=O)N5CCN(C)C(=O)C5)cn4)nn23)no1` [Compound 53], the figure is 28 µg/mL (≈ 53 µM); as for `COCc1cc(-c2nnc3c4ccccc4c(OCc4ccc(C(=O)N5CCCOCC5)cn4)nn23)no1` [Compound 55], 102 µg/mL (≈ 197 µM). The same measure, in the same setting: for `COCc1cc(-c2nnc3c4ccccc4c(OCc4ccc(C(=O)N5CCC(OC)CC5)cn4)nn23)no1` [Compound 57, (6-(((3-(5-(methoxymethyl)isoxazol-3-yl)-[1,2,4]triazolo[3,4-a]phthalazin-6-yl)oxy)methyl)pyridin-3-yl)(4-methoxypiperidin-1-yl)methanone] the value was 26.5 µg/mL (≈ 50 µM). In turn, `COCc1cc(-c2nnc3c4ccccc4c(OCc4ccc(C(=O)N(C)CC(F)(F)F)cn4)nn23)no1` [Compound 58] returned a kinetic solubility at 24 h of 1.46 µg/mL (≈ 2.77 µM).

In turn, `Cc1cc(-c2nnc3c4ccccc4c(OCc4ccc(C(=O)NC5CCOCC5)cn4)nn23)no1` [reference compound] displayed a kinetic solubility at 24 h of 3.88 µg/mL (≈ 7.99 µM).

In another series the target is T1, α5-GABAA receptor (Homo sapiens, UniProt P18507+P31644).
T1 construct: expressed in transfected cells; host or cells: HEK-293 (monoclonal, stably transfected)
T1 sequence (P31644 32-462): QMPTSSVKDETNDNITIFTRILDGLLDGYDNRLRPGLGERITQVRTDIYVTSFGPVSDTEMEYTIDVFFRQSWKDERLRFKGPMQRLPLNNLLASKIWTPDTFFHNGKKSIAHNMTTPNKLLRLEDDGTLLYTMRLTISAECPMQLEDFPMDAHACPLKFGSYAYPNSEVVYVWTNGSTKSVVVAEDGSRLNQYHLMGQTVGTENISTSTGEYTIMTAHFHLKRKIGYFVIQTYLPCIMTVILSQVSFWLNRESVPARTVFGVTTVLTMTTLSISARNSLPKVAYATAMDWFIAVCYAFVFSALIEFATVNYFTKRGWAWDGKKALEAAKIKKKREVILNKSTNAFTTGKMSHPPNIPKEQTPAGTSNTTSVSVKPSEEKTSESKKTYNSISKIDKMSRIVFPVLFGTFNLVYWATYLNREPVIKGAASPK
T1 sequence (P28472 26-473 partner): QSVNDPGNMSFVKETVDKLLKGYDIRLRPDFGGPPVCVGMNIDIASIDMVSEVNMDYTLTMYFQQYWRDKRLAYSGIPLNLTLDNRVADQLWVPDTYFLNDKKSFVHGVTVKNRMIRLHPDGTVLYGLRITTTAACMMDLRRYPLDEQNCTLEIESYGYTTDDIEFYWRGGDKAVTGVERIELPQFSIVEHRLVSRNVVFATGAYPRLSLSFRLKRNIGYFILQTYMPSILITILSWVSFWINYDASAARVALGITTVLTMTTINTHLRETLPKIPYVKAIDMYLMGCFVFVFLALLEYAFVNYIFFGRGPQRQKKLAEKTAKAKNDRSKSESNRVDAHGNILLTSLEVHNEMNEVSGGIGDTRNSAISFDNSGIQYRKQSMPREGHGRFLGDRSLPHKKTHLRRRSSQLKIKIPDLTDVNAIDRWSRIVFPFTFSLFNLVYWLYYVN
T1 sequence (P18507 40-467 isoform P18507-1 limits assumed): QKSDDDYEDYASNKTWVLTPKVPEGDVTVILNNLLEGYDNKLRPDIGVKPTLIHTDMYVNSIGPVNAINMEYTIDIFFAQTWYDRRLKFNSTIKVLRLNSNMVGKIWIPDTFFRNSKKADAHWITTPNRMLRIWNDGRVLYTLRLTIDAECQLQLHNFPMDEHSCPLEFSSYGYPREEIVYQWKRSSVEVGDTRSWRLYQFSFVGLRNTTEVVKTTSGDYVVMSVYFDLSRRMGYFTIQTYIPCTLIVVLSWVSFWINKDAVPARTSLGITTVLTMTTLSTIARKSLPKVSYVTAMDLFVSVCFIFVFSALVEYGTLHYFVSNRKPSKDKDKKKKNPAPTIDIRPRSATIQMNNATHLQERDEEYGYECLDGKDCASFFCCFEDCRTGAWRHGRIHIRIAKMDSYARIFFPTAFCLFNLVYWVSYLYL
Nature of the series: Whole cell patch clamp, inverse agonism efficacy on GABA-induced current in HEK-293 cells expressing α5-GABAA receptor. To be noted: HEK293; compound 100 nM, GABA 0.05 μM; ratio to reference compound Example 7 in CN106854207A in the same batch. The series is classed as cell-based. On the procedure: The inventors used electrophysiological methods to determine the inverse agonist efficacy of the substances to be tested. The detailed procedures are as follows:
(1) Different subunits of GABAA receptors were expressed in human embryonic kidney cells 293 (HEK293). The cells were cultured in a culture medium and used as a cell model for screening potential analgesics. The α, β and γ subunits are necessary to form complete functional GABAA receptors. In this example, the inventors have established the following cell model: (a) α5 subunit (protein sequence is GenBank accession number: NM_000810.3), (33 subunit (protein sequence is GenBank accession number: NM_000814.5) and γ2 subunit (protein sequence is GenBank accession number: NM_000816.3) were expressed in HEK-293 cell line at the same time, followed by screening the monoclonal cell line. This cell line contained α5-GABAA receptor and had complete GABAA receptor function.
(2) The monoclonal stably transfected HEK-293 cells expressing α5-GABAA receptor were cultured in 10 cm culture dishes. The cells were passaged after reaching 80-90% confluence. During passaging, the culture medium was removed and discarded, 3 mL of DPBS (phosphate buffered saline, Gibco™) was added to the dishes, the dishes were shaken slightly, and DPBS was removed and discarded. 1 mL of trypsin (TrypLE Express, Gibco™) was added and the cells were digested at 37° C. for 1-2 minutes. Then 3 mL of complete medium (DMEM+10% FBS (Gibco™)) was added and the cells at the bottom of the culture dishes were dispersed. The cell suspension were transferred to a 15 mL centrifugal tube (Corning™) and then centrifuged at 200 g for 3 minutes. The supernatant was discarded, 4 mL of complete medium was added, and the cells were resuspended by gently blowing. The cell suspension was diluted by 1:5 or 1:10 for subculturing. The cell suspension was diluted by 1:12 for electrophysiology experiment, and added to a 24 well plate (Corning™) with a glass slide pre-treated with poly-D-lysine placed thereon; the experiment was initiated after the cells were adhered to the slide. The cells for electrophysiology experiment were maintained in culture for no more than 48 hours before use.
(3) Compound concentration: for screening, all compounds were diluted to a final concentration of 100 nM and the concentration of GABA was 0.05 μM. The compounds were at the concentration of 0.3 nM, 3 nM, 10 nM, 30 nM, 100 nM and 300 nM in dose-inverse agonism efficacy (%) experiment. The whole cell patch clamp technique was used in electrophysiology experiments, which can refer to the literature (I. Lecker, Y. Yin, D. S. Wang and B. A. Orser, (2013) Potentiation of GABAA receptor activity by volatile anaesthetics is reduced by α5-GABAA receptor-preferring inverse agonists, British Journal of Anaesthesia 110 (S1): i73-i81). The extracellular solution (ECS) contained: 150 mM NaCl, 5 mM KCl, 2.5 mM CaCl2, 1 mM MgCl2, 10 mM HEPES and 10 mM glucose (pH 7.4); Patch electrodes were filled with an intracellular solution containing: 140 mM CsCl, 11 mM EGTA, 10 mM HEPES, 2 mM CaCl2, 1 mM MgCl2, 4 mM MgATP, 2 mM TEA (pH 7.3). The currents were recorded by an EPC-10 amplifier and the PatchMaster software (HEKA). Patch electrodes with a resistance of 4-6 MΩ were pulled from borosilicate glass. The ALA-VC3-8PP™ system was used for extracellular administration. Separate cells that grew independently was selected for recording. During recording, the membrane voltage was clamped at −60 mV. During experiment, the cells were firstly perfused with ECS for 20 seconds. When the baseline reached to a stable state, the cells were then perfused with GABA solution. Then the current induced by GABA could be detected. After about 20 to 40 seconds, the current was stable. ECS was switched to compounds solution and the effects of the compounds were detected. At last, the perfusion solution was switched to ECS. […]
As to `COCc1cc(-c2nnc3c4ccccc4c(OCc4ccc(C(=O)NC5CC(F)(F)C5)cn4)nn23)no1` [Compound 03, N-(3,3-difluoro-cyclobutyl)-6-[3-(5-methoxymethyl-isoxazol-3-yl)-[1,2,4]triazolo[3,4-a]phthalazin-6-yloxymethyl]-nicotinamide], the maximal effect (Emax) at 0.1 µM stood at 92.1%. Same read-out and setting: as for `COCCCNC(=O)c1ccc(COc2nn3c(-c4cc(COC)on4)nnc3c3ccccc23)nc1` [Compound 08, 6-[3-(5-methoxymethyl-isoxazol-3-yl)-[1,2,4]triazolo[3,4-a]phthalazin-6-yloxymethyl]-N-(3-methoxy-propyl)-nicotinamide], the figure is 110%. Same read-out and setting: for `COCc1cc(-c2nnc3c4ccccc4c(OCc4ccc(C(=O)NC5COC5)cn4)nn23)no1` [Compound 17, 6-[3-(5-methoxymethyl-isoxazol-3-yl)-[1,2,4]triazolo[3,4-a]phthalazin-6-yloxymethyl]-N-oxetan-3-yl-nicotinamide] the value was 105%; for `COCc1cc(-c2nnc3c4ccccc4c(OCc4ccc(C(=O)N5CC(F)(F)C5)cn4)nn23)no1` [Compound 46, (3,3-difluoroazetidin-1-yl)(6-(((3-(5-(methoxymethyl)isoxazol-3-yl)[1,2,4]triazolo[3,4-a]phthalazin-6-yl)oxy)methyl)pyridin-3-yl)methanone], 94.6%.

The record behind these values is patent US11512089B2, “Substituted [1,2,4]triazolo[3,4-a]phthalazines as modulators of GABAA receptor activity” (SHANGHAI SIMR BIOTECHNOLOGY CO., LTD, priority 2018, dated 2022).
